Peptide text beside a SMILES is read from it.
Assays:
PSD-95 PDZ3 = biological target: T1, PSD-95 PDZ3 (Homo sapiens, UniProt P78352); assay: SPR steady-state binding to immobilized PSD-95 PDZ3
T1 construct: made in house; host or cells: E. coli One Shot BL21 Star (DE3)
From the text: (§1) To confirm the affinities measured by FP using an orthogonal method and to get information about the kinetics of the GPCR–PDZ interactions, we used SPR. This label-free, surface sensitive technique measures the binding of a ligand to an immobilized protein as a function of time based on refractive index changes.
(§2) For each of the PSD-95 PDZ domains, we determined the K d and the stability of the complexes for selected GPCR C-tail peptides. The residence time τ ( = 1/k d) was used as a convenient measure of the stability of the complexes. […] The K d determined from the steady-state responses of a range of C-tail peptide concentrations (Figure 2B and Table S4) correlated well with the K i values obtained by FP (Figure S1).
(§3) A Biacore X100 (GE Healthcare) SPR instrument equilibrated to 25.0°C and equipped with a Sensor Chip CM5 (for PDZ1 and PDZ2) or CM4 (for PDZ3) (GE Healthcare) was used for the SPR measurements. The running buffer was HBS-EP+ (10 mM HEPES pH 7.4, 150 mM NaCl, 3 mM EDTA, 0.05% Surfactant P-20 (GE Healthcare)). […]
(§4) GPCR C-tail peptide samples were injected in increasing concentrations for 1 min with 1 min dissociation time at 30 µl/min. […] The K d was determined by fitting steady-state response curves to a 1∶1 binding model with a linear component to corrrect for low affinity binding, probably resulting from the immobilization: Y = Ymax × X/(X+K d)+B × X.

PSD-95 PDZ1 = biological target: T2, PSD-95 PDZ1 (Homo sapiens, UniProt P78352); assay: SPR steady-state binding to immobilized PSD-95 PDZ1
T2 construct: PSD-95 PDZ1 (aa 61–151); made in house; host or cells: E. coli One Shot BL21 Star (DE3)
From the text: as §1, §2
A Biacore X100 (GE Healthcare) SPR instrument equilibrated to 25.0°C and equipped with a Sensor Chip CM5 (for PDZ1 and PDZ2) or CM4 (for PDZ3) (GE Healthcare) was used for the SPR measurements. The running buffer was HBS-EP+ (10 mM HEPES pH 7.4, 150 mM NaCl, 3 mM EDTA, 0.05% Surfactant P-20 (GE Healthcare)).
PDZ domains were immobilized by amine coupling at a flow rate of 5 µl/min on a surface activated by a 7 min injection of a 1∶1 mixture of 0.4 M 1-ethyl-3-(3-dimethylaminopropyl) carbodiimide (EDC) and 0.1 M N-hydroxysuccinimide (NHS). The remaining active groups were deactivated by a 7 min injection of 1 M ethanolamine HCl pH 8.5. 750 RU PDZ1, 780 RU PDZ2, and 410 RU PDZ3 were immobilized.
GPCR C-tail peptide samples were injected in increasing concentrations for 1 min with 1 min dissociation time at 30 µl/min. Reproducibility was tested by injecting the 20 µM sample again after the highest concentration sample. The binding curves were corrected by subtraction of buffer blanks and the response from a reference surface that was activated with EDC and NHS and deactivated with ethanolamine like the surface with immobilized PDZ domain. For peptides with a cysteine, 1 mM dithiothreitol (DTT) was added to the samples. Steady-state response curves were plotted from the responses 10 s before injection end. The K d was determined by fitting steady-state response curves to a 1∶1 binding model with a linear component to corrrect for low affinity binding, probably resulting from the immobilization: Y = Ymax × X/(X+K d)+B × X.

PSD-95 = assay: FP competition assay, PSD-95 PDZ domains overall (strongest binding domain / non-binders); details: FP competition with the isolated PDZ domains, peptide typically 1–512 µM
Description: We used a competition set-up, where a constant concentration of isolated PSD-95 PDZ domain and a labeled reference ligand was titrated with unlabeled peptides from the GPCR C-tail library, typically within a 1–512 µM concentration range, and the resulting curves were fitted to obtain the IC50, which was used to calculate the K i (Figure 1). Three Cy5-labeled peptides with well-documented interactions with PSD-95 were used as reference ligands for the competition assay: Cy5-KIF1Bα was used for PDZ1 [20], Cy5-GluN2B (formerly known as NR2B) was used for PDZ2 and PDZ1-2 [21], and Cy5-CRIPT was used for PDZ3 [22] (Table S1). Competition with unlabeled versions of the reference ligands was used to validate the FP assay by comparison with the literature (Table S2).
FP measurements were performed in black, flat bottom 384-well NBS microplates (Corning) on a Synergy H4 microplatereader (BioTek Instruments) equipped with a 620/40 nm excitation filter, a 680/30 nm emission filter, and a 660 nm dichroic mirror. Polarization values were corrected with blank samples and samples with fluorescent probe alone. At least 10 data points were measured for each curve, and each data point was measured in triplicate. 25 nM Cy5-labeled probe was used for each assay: Cy5-KIF1Bα for PDZ1, Cy5-GluN2B for PDZ2 and PDZ1-2, and Cy5-CRIPT for PDZ3. All FP measurements were performed in a buffer containing 10 mM HEPES pH 7.4, 150 mM NaCl, and 1% BSA and incubated at least 15 min at room temperature before reading. The signal was stable for more than an hour, showing that the reaction was at equilibrium.
For the competition binding curves, probe was mixed with a constant concentration of PDZ protein corresponding to the K d and a twofold dilution series of unlabeled peptide in a total volume of 30 µl. The baseline was determined using a sample containing only probe. The IC50 was determined by fitting to a 1∶1 binding model: Y = Ymax − Ymax × X/(X+IC50). The K i was calculated from the IC50 and from the K d for the interaction between the PDZ protein and the probe as described previously.

PSD-95 PDZ2 = biological target: T3, PSD-95 PDZ2 (Homo sapiens, UniProt P78352); assay: SPR steady-state binding to immobilized PSD-95 PDZ2
T3 construct: PDZ2 (aa 155–249); made in house; host or cells: E. coli One Shot BL21 Star (DE3)
From the text: as §1, §2, §3, §4

PSD-95 PDZ domains = assay: Time-resolved SPR, PSD-95 PDZ domains (kinetics); type: binding; details: 500 µM C-tail peptide, all three PDZ domains
From the text: as §2
For all combinations of PDZ domains and GPCR C-tail peptides, we observed dissociation of the complexes within the first second of the dissociation phase (Figure 2A) (faster than the time-resolution of the instrument), meaning that τ is less than 1 s (k d >1 s^−1). This implies that the GPCR–PDZ complexes are very transient, which is in agreement with previous work.
A Biacore X100 (GE Healthcare) SPR instrument equilibrated to 25.0°C and equipped with a Sensor Chip CM5 (for PDZ1 and PDZ2) or CM4 (for PDZ3) (GE Healthcare) was used for the SPR measurements. […]
as §4

- Kd (PSD-95 PDZ3): > 1000 µM
- Kd (PSD-95 PDZ1): > 1000 µM
- Interaction with PSD-95 using fluorescence polarization (PSD-95): not to interact
- Kd (PSD-95 PDZ2): > 1000 µM
- Time-resolved binding to PSD-95 PDZ1, PDZ2 and PDZ3 by SPR (PSD-95 PDZ domains): did not interact
Compound: CC[C@H](C)[C@H](NC(=O)[C@H](CO)NC(=O)[C@H](CO)NC(=O)[C@H](CCC(=O)O)NC(=O)[C@@H](NC(=O)[C@H](Cc1c[nH]c2ccccc12)NC(=O)[C@H](C)NC(=O)[C@H](CCCNC(=N)N)NC(=O)[C@H](CCCNC(=N)N)NC(=O)[C@H](CC(=O)O)NC(=O)[C@@H](N)CC(=O)O)[C@@H](C)O)C(=O)N[C@@H](CC(N)=O)C(=O)N[C@H](C(=O)O)[C@@H](C)O (H-DDRRAWTESSINT-OH; N-terminus assumed)

Source: PMC3653948, “PDZ Domain-Mediated Interactions of G Protein-Coupled Receptors with Postsynaptic Density Protein 95: Quantitative Characterization of Interactions” (PLoS ONE, 2013)
